Reference: BindingDB's records for doi:10.1016/s0960-894x(00)00080-9 (Granada, 2000)

Target: Choline kinase (Saccharomyces cerevisiae) (UniProt P20485)
Test: Compound was tested […] for inhibition against purified choline kinase obtained from yeast

Choline kinase (Saccharomyces cerevisiae), sequence (P20485 whole entry, looked up): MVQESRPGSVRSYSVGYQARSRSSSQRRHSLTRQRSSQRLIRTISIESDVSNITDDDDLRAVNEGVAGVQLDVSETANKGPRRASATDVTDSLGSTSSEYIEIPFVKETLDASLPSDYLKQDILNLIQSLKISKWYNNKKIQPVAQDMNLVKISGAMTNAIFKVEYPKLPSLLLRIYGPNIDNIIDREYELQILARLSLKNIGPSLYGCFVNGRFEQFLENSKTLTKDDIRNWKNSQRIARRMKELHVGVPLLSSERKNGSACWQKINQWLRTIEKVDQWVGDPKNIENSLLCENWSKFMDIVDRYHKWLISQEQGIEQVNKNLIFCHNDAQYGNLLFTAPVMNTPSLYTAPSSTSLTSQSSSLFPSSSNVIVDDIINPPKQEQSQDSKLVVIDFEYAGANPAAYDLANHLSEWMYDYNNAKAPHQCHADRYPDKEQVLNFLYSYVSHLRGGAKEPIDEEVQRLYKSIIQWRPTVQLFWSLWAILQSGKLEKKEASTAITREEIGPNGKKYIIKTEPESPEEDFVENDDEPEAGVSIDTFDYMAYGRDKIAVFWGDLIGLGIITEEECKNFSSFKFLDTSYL

Row | IC50 [µM] | Compound
1 | 17 | C=CC[N+](CC=C)=c1ccn(Cc2ccc(CCc3ccc(Cn4ccc(=[N+](CC=C)CC=C)cc4)cc3)cc2)cc1 [4N,4N-diallyl-1-{4-[4-(4-diallylamino-1-pyridiniumylmethyl)phenethyl]benzyl}-4-pyridiniumamine dibromide]
2 | 20 | c1cc(Cn2ccc(=[N+]3CCCC3)cc2)ccc1CCc1ccc(Cn2ccc(=[N+]3CCCC3)cc2)cc1 [1,2-di[4-(4-tetrahydro-1H-1-pyrrolyl-1-pyridiniumylmethyl)phenyl]ethane dibromide]
3 | 9.6 | c1cc(Cn2ccc(=[N+]3CCCCC3)cc2)ccc1CCc1ccc(Cn2ccc(=[N+]3CCCCC3)cc2)cc1 [1,2-di[4-(4-hexahydro-1-pyridinyl-1-pyridiniumylmethyl)phenyl]ethane dibromide]
4 | 100 | OCc1cc[n+](Cc2ccc(CCc3ccc(C[n+]4ccc(CO)cc4)cc3)cc2)cc1 [1-{4-[4-(4-hydroxymethyl-1-pyridiniumylmethyl)phenethyl]benzyl}-4-pyridiniumylmethanol dibromide]
5 | > 1000 | N#Cc1cc[n+](Cc2ccc(CCc3ccc(C[n+]4ccc(C#N)cc4)cc3)cc2)cc1 [1-{4-[4-(4-cyano-1-pyridiniumylmethyl)phenethyl]benzyl}-4-pyridiniumcarbonitrile dibromide]
6 | 100 | Cc1cc[n+](Cc2ccc(CCc3ccc(C[n+]4ccc(C)cc4)cc3)cc2)cc1 [1,2-di[4-(4-methyl-1-pyridiniumylmethyl)phenyl]ethane dibromide]
7 | 23 | N=c1ccn(Cc2ccc(CCc3ccc(Cn4ccc(=N)cc4)cc3)cc2)cc1 [1-{4-[4-(4-amino-1-pyridiniumylmethyl)phenethyl]benzyl}-4-pyridiniumamine dibromide]
8 | 15 | c1cc(Cn2ccc(=[N+]3CCCCCC3)cc2)ccc1CCc1ccc(Cn2ccc(=[N+]3CCCCCC3)cc2)cc1 [1,2-di{4-[4-(1-azepanyl)-1-pyridiniumylmethyl]phenyl}ethane dibromide]
9 | 137 | O=C(O)c1cc[n+](Cc2ccc(CCc3ccc(C[n+]4ccc(C(=O)O)cc4)cc3)cc2)cc1 [1-{4-[4-(4-carboxy-1-pyridiniumylmethyl)phenethyl]benzyl}-4-pyridiniumcarboxylic acid dibromide]
10 | 17 | C[N+](C)=c1ccn(Cc2ccc(CCc3ccc(Cn4ccc(=[N+](C)C)cc4)cc3)cc2)cc1 [4N,4N-dimethyl-1-{4-[4-(4-dimethylamino-1-pyridiniumylmethyl)phenethyl]benzyl}-4-pyridiniumamine dibromide]
